Results: patent US11597737B2, “Small molecule inhibitors selective for polo-like kinase proteins” (UNIVERSITY OF SOUTH CAROLINA, priority 2016, dated 2023)

Tests used:
[1] = molecular target: T1, PLK1 PBD (367-603) (Homo sapiens, UniProt P53350); test: Fluorescence polarization assay, PLK1 PBD; format: binding
T1 construct: PLK1 PBD (367-603); purchased BPS Biosciences Inc. (San Diego, Calif.)
Protocol: Fluorescence Polarization Assay
Materials were dissolved in DMSO (10 mM) and diluted from 10 nM to 600 μM (maximum of 6% DMSO tolerance in the assay). […] Incubation was carried out at room temperature for 45 minutes. Fluorescence was measured using a DTX 880 plate reader and Multimode Analysis software (Beckman Coulter, Brea, Calif.). […] Each data point was performed in triplicate for every experiment, and experiments were performed at least three times. An IC50 value for each compound was calculated from linear regression analysis of the plots.

[2] = molecular target: T2, full length PLK1 (Homo sapiens, UniProt P53350); test: PLK1 kinase inhibition assay (CycLex ELISA); format: biochemical; conditions: 7.5 μM ATP, read-out: PLK1 Kinase Inhibitory Act. IC50
T2 construct: This ELISA assay measures the catalytic activity of full length PLK1 for a defined substrate
Excerpt: PLK1 Kinase Inhibition Assay
The CycLex® Polo-like Kinase 1 Assay/Inhibitor Screening Kit was used to measure catalytic inhibition (MBL Life Science, Nagano, Japan). This ELISA assay measures the catalytic activity of full length PLK1 for a defined substrate, which is detected by an anti-phospho-threonine antibody (PPT-07) and peroxidase coupled secondary antibody. […] Peroxidase catalyzes the conversion of the colorless solution to yellow, which was quantified using a DTX 880 plate reader. Absorbance measurements (450 nm) were plotted to calculate activity in each sample, and % inhibition was calculated in the wells relative to activity in the absence of inhibitor.

[3] = system: HeLa cervical cancer cells; test: Cell viability assay (MTT), HeLa; format: cell-based; conditions: MTT, 72 hours; read-out: HeLa
Protocol: HeLa cervical cancer cells were obtained from ATCC (Manassas, Va.). […] Cells were maintained in DMEM (Invitrogen™, Carlsebad, Calif.) supplemented with 10% FBS or Corning© Nu-Serum™ (BD™ Biosciences, Franklin Lakes, N.J.) and 1% penicillin/streptomycin (Invitrogen™) in a humidified incubator and 5% CO2 at 37° C.
(§1) Exponentially growing cells were plated in 96-well dishes. Dose response curves were used to treat cells for 72 hours with inhibitors. Following the three-day treatment, cell viability was measured using the MTT (3-(4,5-dimethylthiazol-2-yl)-2,5-diphenyltetrazolium bromide) colorimetric assay. Cells were incubated for 3 hours with MTT allowing viable cells to metabolize the tetrazolium dye to a purple colored solution.

[4] = system: PTEN deficient prostate cancer (PC3) cells; test: Cell viability assay (MTT), PC3; format: cell-based; conditions: MTT, 72 hours; read-out: PCC-3
Protocol: PC3 prostate cancer cells were maintained in DMEM (Invitrogen™, Carlsebad, Calif.) supplemented with 10% FBS or Corning® Nu-Serum™ (BD™ Biosciences, Franklin Lakes, N.J.) and 1% penicillin/streptomycin (Invitrogen™) in a humidified incubator and 5% C02 at 37° C.
as §1

[5] = system: KRAS mutant lung cancer (A-549) cells; test: Cell viability assay (MTT), A-549; format: cell-based; conditions: 72 hours
Protocol: A-549 lung cancer cells were maintained in Hams F-12 1× with glutamine (Corning® Cellgro, Manassas, Va.), and supplemented with 10% FBS or Corning® Nu-Serum™ (BD™ Biosciences, Franklin Lakes, N.J.) and 1% penicillin/streptomycin (Invitrogen™) in a humidified incubator and 5% C02 at 37° C.
as §1, with “solution. Absorbance measurements (595 nm) were quantified using a DTX 880 plate reader and IC50 values were generated for FLIPs.” for “solution.”

[6] = system: HCT-116 (p53−/−) colon cancer cells; test: Cell viability assay (MTT), HCT116 p53-/-; format: cell-based; conditions: 72 hours
Protocol: HCT-116 (p53+/+ and −/−) colon cancer cells were maintained DMEM (Invitrogen™, Carlsebad, Calif.) supplemented with 10% FBS or Nu-serum (BD™ Biosciences, Franklin Lakes, N.J.) and 1% penicillin/streptomycin (Invitrogen™) in a humidified incubator and 5% C02 at 37° C.
as §1, with “solution. Absorbance measurements (595 nm) were quantified using a DTX 880 plate reader and IC50 values were generated for FLIPs.” for “solution.”

[7] = system: HCT-116 (p53+/+) colon cancer cells; test: Cell viability assay (MTT), HCT116 p53+/+; format: cell-based; conditions: 72 hours
Protocol: as §1

[8] = system: PC3 cells; test: Cell cycle analysis after release (DAPI/BrdU FACS), FIG. 3; format: cell-based; conditions: FIG. 3 4th panel, concentration not given
Protocol: PLK specificity can be useful in therapeutic applications, as well as in research-oriented application.
(§2) Analysis of Cell Cycle Progression by FACS
(§3) Serum-Starved Synchronization
(§4) Cells were synchronized in G1 by serum starvation. Briefly, exponentially growing cells were plated overnight. Media (DMEM, 10% FBS, 1% Pen. Strep.) was then removed and replaced with media containing no FBS. Cells were starved for 72 hours then treated for 24 hours with inhibitor. Following treatment, cells were harvested and processed for endpoint experimental analysis.
(§5) Ethanol fixative was removed by centrifugation and the cells were washed with 1 mL ice-cold PBS/1% BSA. Cells were denatured by resuspending in 0.2 mg/mL pepsin in 2N HCl and incubated in 37° C. water bath for 15 minutes. Hydrolysis was then terminated by adding 1 M Invitrogen™ Novex® Tris-Glycine. Cells were then washed with PBS/1% BSA then the primary anti-BrdU antibody (1:100 dilution in TBFP; 0.5% Tween-20, 1% BSA, 1% FBS, PBS) was added and cells were incubated for 25 minutes in the dark, at room temperature. […] Cells were washed once more with PBS/1% BSA and re-suspended in DAPI for 30 minutes before being analyzed by flow cytometry.

[9] = system: PC3 cells; test: Cell cycle analysis and BrdU pulse labeling in PC3 cells, FIG. 9-11; format: cell-based
Protocol: as §2, §3, §4, §5
The PLK1 PBD-inhibitors were analyzed further by cell cycle analysis in PC3 cells (FIG. 9). […] To quantify the percentage of cells actively proliferating (synthesizing their DNA) or arrested Bromodeoxyuridine (BrdU) pulse labeling was carried out and analyzed by flow cytometry.

[10] = Cell cycle analysis and caspase apoptosis assay; format: cell-based
Excerpt: Disclosed small molecule inhibitors can also encourage apoptosis.

T1 sequence (P53350 367-603): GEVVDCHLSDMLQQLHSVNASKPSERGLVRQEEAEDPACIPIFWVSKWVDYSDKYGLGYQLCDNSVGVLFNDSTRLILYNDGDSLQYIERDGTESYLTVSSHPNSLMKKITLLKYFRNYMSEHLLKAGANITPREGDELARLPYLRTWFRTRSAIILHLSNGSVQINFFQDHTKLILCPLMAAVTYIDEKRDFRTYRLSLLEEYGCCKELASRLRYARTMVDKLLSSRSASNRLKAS
T2 sequence (P53350 whole entry): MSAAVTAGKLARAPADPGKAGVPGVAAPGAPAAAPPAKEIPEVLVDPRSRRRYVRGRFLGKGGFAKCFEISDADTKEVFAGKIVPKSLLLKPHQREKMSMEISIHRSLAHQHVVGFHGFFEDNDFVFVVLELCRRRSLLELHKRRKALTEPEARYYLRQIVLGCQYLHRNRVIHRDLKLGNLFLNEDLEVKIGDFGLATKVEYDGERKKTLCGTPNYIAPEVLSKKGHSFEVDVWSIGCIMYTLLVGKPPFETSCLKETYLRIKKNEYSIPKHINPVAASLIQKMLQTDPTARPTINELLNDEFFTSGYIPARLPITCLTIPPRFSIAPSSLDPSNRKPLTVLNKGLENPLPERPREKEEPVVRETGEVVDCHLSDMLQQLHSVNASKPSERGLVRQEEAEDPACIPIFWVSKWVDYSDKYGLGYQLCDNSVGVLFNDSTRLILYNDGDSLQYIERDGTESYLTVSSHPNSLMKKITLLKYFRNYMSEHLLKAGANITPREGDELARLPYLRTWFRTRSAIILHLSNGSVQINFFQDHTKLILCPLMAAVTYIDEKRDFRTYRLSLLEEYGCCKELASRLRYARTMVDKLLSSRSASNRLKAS

PLK1 versus PLK3 specificity (in words) ([1]; PBD binding): high selectivity for PLK1 | IC50 ([1]; PLK1 PBD binding, fluorescence polarization, read-out: PLK1 IC50): 2.16 ± 0.01 µM | IC50 [2]: 24.3 µM | IC50 [3]: 15.5 ± 1.7 µM | IC50 [4]: 16.3 ± 2.1 µM | IC50 [5]: 5.1 ± 1.5 µM | IC50 [6]: 10 ± 1 µM | IC50 [7]: 17.4 ± 5.6 µM
Structure (SMILES): CCCCCCCCc1ccc(C(=O)Nc2ccc(C)cc2C(=O)O)cc1 [SCCP ID No. 5915]
G2/M by DAPI [8]: 42% | cells BrdU+ [8]: 13% | cells replicating their DNA (BrdU labeling) ([9]; 5 μM): 28.3% | BrdU+ ([9]; 15 μM): 3.6% | cell cycle phenotype (in words) ([9]; 15 μM): G1 delay or arrest | levels of apoptosis (in words) [10]: high levels of apoptosis
